The results in this text go back to US20100222322A1, “Non-Nucleoside Reverse Transcriptase Inhibitors” (MERCK & CO., INC., priority 2005, published 2010).

Read-outs that look alike come from different tables or passages of the source.

In general, IC95 refers to the concentration at which the effect reaches the 95% level. Usually IC50 stands for the midpoint of a concentration-inhibition curve.

Experiment [1] concerns HIV replication in T-lymphoid cells. Kind of experiment: Spread assay: inhibition of acute HIV infection of T-lymphoid cells. In kind it is cell-based. The note with it: read-out: IC95, spread assay (inhibition of HIV replication). The method, then:
An assay for the inhibition of acute HIV infection of T-lymphoid cells (alternatively referred to herein as the “spread assay”) was conducted in accordance with Vacca, J. P. et al., Proc. Natl. Acad. Sci. USA 1994, 91: 4096. […] The compounds of Examples 26, 29, 30, 33-35 and 62 were tested in the spread assay up to 10 micromolar, but specific IC95 values were not obtained; i.e., the IC95 values were greater than 10 micromolar. The compounds of Examples 47 and 61 were not tested.

The target in experiment [2] is T1, mutant HIV reverse transcriptase with the Y181C mutation (Human immunodeficiency virus type 1 group M subtype B, UniProt P04585, Y768C).
T1 construct: mutations that occur in the reverse transcriptase segment of the pol gene; made in house
As to the kind of experiment: Analogous RT inhibition assay, Y181C mutant. It is filed as biochemical. The method, then: (§1) 100 μL reaction mixtures were initiated with a combination of primer-template substrate (10 nM final concentration) and dNTPs (0.6 μM dNTPs, 0.75 μM [^3H]-dGTP). The heterodimeric nucleic acid substrate was generated by annealing the DNA primer pD500 (described in Shaw-Reid et al., J. Biol. Chem., 278: 2777-2780; obtained from Integrated DNA Technologies) to t500, a 500 nucleotide RNA template created by in vitro transcription (see Shaw-Reid et al., J. Biol. Chem., 278: 2777-2780). After 1 hour incubation at 37° C., reactions were quenched by 10 μL streptavidin scintillation proximity assay beads (10 mg/mL, from Amersham Biosciences) in 0.5 M EDTA, pH 8. Microtiter plates were incubated an additional 10 minutes at 37° C. prior to quantification via Topcount (Packard).
(§2) Analogous assays were conducted substituting mutant HIV strains to determine the […] inhibition of compounds of the present invention against mutant HIV reverse transcriptase. In one strain the reverse transcriptase has the Y181C mutation and in the other strain the reverse transcriptase has the K103N mutation. The mutations were generated with the […] site-directed mutagenesis kit (Stratagene). […] The compounds set forth in the other Examples were not tested in the Y181C assay. […] The compounds set forth in the other Examples were not tested in the K103N assay.

The target in experiment [3] is T2, mutant HIV reverse transcriptase with the K103N mutation (Human immunodeficiency virus type 1 group M subtype B, UniProt P04585, K690N).
T2 construct: mutations that occur in the reverse transcriptase segment of the pol gene; made in house
Kind of experiment: Analogous RT inhibition assay, K103N mutant. In kind it is biochemical. The method, then:
as §1, §2

The mark [4] stands for this setting: Human immunodeficiency virus 1, acute HIV infection of T-lymphoid cells, tested up to 10 micromolar.
Setting [5] is: RT with Y181C mutation, tested up to 20 micromolar, read-out: IC50, Y181C mutant assay.
The mark [6] stands for this setting: RT with K103N mutation, tested up to 20 micromolar, read-out: IC50, K103N mutant assay.
The mark [7] stands for this setting: Human immunodeficiency virus 1, T-lymphoid.

Take `NC(=O)c1[nH]c2ccc(Br)cc2c1S(=O)(=O)N1CCCC1` [Example 1, 5-Bromo-3-(pyrrolidin-1-ylsulfonyl)-1H-indole-2-carboxamide]: the IC95 in experiment [1] (setting [4]) is less than 1000 nM. Moreover, the IC50 is less than 1000 nM in experiment [2] (setting [5]) and 1000 to 20000 nM in experiment [3] (setting [6]).
As to `NC(=O)c1[nH]c2ccc(Cl)cc2c1S(=O)(=O)NC1CCCCC1` [Example 2, 5-chloro-3-[(cyclohexylamino)sulfonyl]-1H-indole-2-carboxamide], the IC95 in experiment [1] (setting [4]) was less than 1000 nM. The IC50 is less than 1000 nM in experiment [2] and more than 20000 nM in experiment [3].
As to `NC(=O)c1[nH]c2ccc(Cl)cc2c1S(=O)(=O)NC1CCCC1` [Example 4, 5-chloro-3-[(cyclopentylamino)sulfonyl]-1H-indole-2-carboxamide], the IC95 in experiment [1] (setting [4]) is less than 1000 nM. Further, the IC50 in experiment [2] (setting [5]) was less than 1000 nM; in experiment [3], more than 20000 nM.
Turning to `NC(=O)c1[nH]c2ccc(Cl)cc2c1S(=O)(=O)N1CCCCC1` [Example 5, 5-chloro-3-(piperidin-1-ylsulfonyl)-1H-indole-2-carboxamide], the IC95 in experiment [1] (setting [4]) is less than 1000 nM. The figures for the IC50 in experiment [2] (setting [5]) and in experiment [3] were less than 1000 nM and more than 20000 nM, respectively.
With `NC(=O)c1[nH]c2ccc(Cl)cc2c1S(=O)(=O)N1CCCC1` [Example 6, 5-chloro-3-(pyrrolidin-1-ylsulfonyl)-1H-indole-2-carboxamide], the IC95 in experiment [1] (setting [4]) is less than 1000 nM. In addition, the concentration for half-maximal inhibition (IC50) is less than 1000 nM in experiment [2] (setting [5]) and 1000 to 20000 nM in experiment [3].
On to `CN(C1CC1)S(=O)(=O)c1c(C(N)=O)[nH]c2ccc(Br)cc12` [Example 8, 5-bromo-3-{[cyclopropyl(methyl)amino]sulfonyl}-1H-indole-2-carboxamide], for which the IC95 in experiment [1] (setting [4]) was less than 1000 nM. Besides, the IC50 in experiment [2] is 1000 to 20000 nM; in experiment [3], more than 20000 nM.
The matching figures for `NC(=O)c1[nH]c2ccc(Br)cc2c1S(=O)(=O)NCCS(N)(=O)=O` [Example 9, 3-({[2-(aminosulfonyl)ethyl]amino}sulfonyl)-5-bromo-1H-indole-2-carboxamide]: less than 1000 nM, 1000 to 20000 nM and 1000 to 20000 nM.
The matching figures for `NC(=O)c1[nH]c2ccc(Br)cc2c1S(=O)(=O)N1CC=CC1` [Example 10, 5-bromo-3-(2,5-dihydro-1H-pyrrol-1-ylsulfonyl)-1H-indole-2-carboxamide]: less than 1000 nM, less than 1000 nM and less than 1000 nM.
As for `NC(=O)c1[nH]c2ccc(Br)cc2c1S(=O)(=O)NC1CC1` [Example 11, 5-bromo-3-[(cyclopropylamino)sulfonyl]-1H-indole-2-carboxamide], the IC95 in experiment [1] (setting [4]) is less than 1000 nM. Further, the IC50 in experiment [2] is 1000 to 20000 nM; in experiment [3], more than 20000 nM.
The matching figures for `CON(C)S(=O)(=O)c1c(C(N)=O)[nH]c2ccc(Br)cc12` [Example 12, 5-bromo-3-{[methoxy(methyl)amino]sulfonyl}-1H-indole-2-carboxamide]: less than 1000 nM, more than 20000 nM and more than 20000 nM.
In the case of `NC(=O)c1[nH]c2ccc(Br)cc2c1S(=O)(=O)N1CCCCC1` [Example 13, 5-bromo-3-(piperidin-1-ylsulfonyl)-1H-indole-2-carboxamide], the IC95 in experiment [1] (setting [4]) was less than 1000 nM. In addition, the IC50 is less than 1000 nM in experiment [2] (setting [5]) and 1000 to 20000 nM in experiment [3] (setting [6]).
Consider `COC[C@@H]1CCCN1S(=O)(=O)c1c(C(N)=O)[nH]c2ccc(Br)cc12` [Example 15, 5-bromo-3-{[(2S)-2-(methoxymethyl)pyrrolidin-1-yl]sulfonyl}-1H-indole-2-carboxamide], for which the IC95 in experiment [1] (setting [4]) is less than 1000 nM. In addition, the IC50 in experiment [2] (setting [5]) was less than 1000 nM; in experiment [3] (setting [6]), 1000 to 20000 nM.
For the compound `NC(=O)c1[nH]c2ccc(Br)cc2c1S(=O)(=O)NC1CCCCC1` [Example 16, 5-bromo-3-[(cyclohexylamino)sulfonyl]-1H-indole-2-carboxamide], the IC95 in experiment [1] (setting [4]) is less than 1000 nM. Moreover, the values for the 50% inhibitory concentration (IC50) in experiment [2] (setting [5]) and in experiment [3] (setting [6]) were less than 1000 nM and more than 20000 nM, respectively.
`NC(=O)c1[nH]c2ccc(Br)cc2c1S(=O)(=O)NC1CCCC1` [Example 17, 5-bromo-3-[(cyclopentylamino)sulfonyl]-1H-indole-2-carboxamide]: the IC95 in experiment [1] (setting [4]) was less than 1000 nM. Besides, the IC50 was less than 1000 nM in experiment [2] (setting [5]) and more than 20000 nM in experiment [3] (setting [6]).
Turning to `NC(=O)c1[nH]c2ccc(Br)cc2c1S(=O)(=O)NCC1CCCO1` (stereo not shown) [Example 18, 5-bromo-3-{[(tetrahydrofuran-2-ylmethyl)amino]sulfonyl}-1H-indole-2-carboxamide], in experiment [1] (setting [4]), the IC95 was less than 1000 nM. Also, the IC50 is less than 1000 nM in experiment [2] (setting [5]) and more than 20000 nM in experiment [3] (setting [6]).
Take `NC(=O)c1[nH]c2ccc(Br)cc2c1S(=O)(=O)N1CCC[C@H]1C(F)(F)F` [Example 19, 5-bromo-3-{[(2S)-2-(trifluoromethyl)pyrrolidin-1-yl]sulfonyl}-1H-indole-2-carboxamide]: in experiment [1] (setting [4]), the IC95 is less than 1000 nM. The IC50 in experiment [2] is 1000 to 20000 nM; in experiment [3] (setting [6]) it was more than 20000 nM.
Regarding `NC(=O)c1[nH]c2ccc(Br)cc2c1S(=O)(=O)N1CCCC(F)(F)C1` [Example 21, 5-bromo-3-[(3,3-difluoropiperidin-1-yl)sulfonyl]-1H-indole-2-carboxamide], the IC95 in experiment [1] (setting [4]) is less than 1000 nM. Also, the IC50 in experiment [2] is less than 1000 nM; in experiment [3] it was more than 20000 nM.
Take `O=C(NCCO)c1[nH]c2ccc(Br)cc2c1S(=O)(=O)N1CCCCC1` [Example 31, 5-bromo-N-(2-hydroxyethyl)-3-(piperidin-1-ylsulfonyl)-1H-indole-2-carboxamide]: the IC95 in experiment [1] (setting [7]) was less than 1000 nM. Moreover, the figures for the half-inhibitory concentration (IC50) in experiment [2] and in experiment [3] were less than 1000 nM and more than 20000 nM, respectively.
Consider `O=C(NCCO)c1[nH]c2ccc(Br)cc2c1S(=O)(=O)N1CCCC1` [Example 32, 5-bromo-N-(2-hydroxyethyl)-3-(pyrrolidin-1-ylsulfonyl)-1H-indole-2-carboxamide], for which the IC95 in experiment [1] (setting [7]) was less than 1000 nM. For the same compound, the figures for the 50% inhibitory concentration (IC50) in experiment [2] and in experiment [3] were less than 1000 nM and 1000 to 20000 nM, respectively.
As for `NC(=O)c1[nH]c2ccc(Cl)cc2c1S(=O)(=O)N1CC=CC1` [Example 37, 5-chloro-3-(2,5-dihydro-1H-pyrrol-1-ylsulfonyl)-1H-indole-2-carboxamide], the IC95 in experiment [1] (setting [4]) is less than 1000 nM. The figures for the IC50 in experiment [2] (setting [5]) and in experiment [3] were less than 1000 nM and 1000 to 20000 nM, respectively.
Consider `NC(=O)c1[nH]c2ccc(Cl)cc2c1S(=O)(=O)N1CCC(F)(F)C1` [Example 39, 5-chloro-3-[(3,3-difluoropyrrolidin-1-yl)sulfonyl]-1H-indole-2-carboxamide], for which, in experiment [1] (setting [4]), the IC95 was less than 1000 nM. For the same compound, the IC50 in experiment [2] (setting [5]) was less than 1000 nM.
Consider `O=C(NCc1nccs1)c1[nH]c2ccc(Br)cc2c1S(=O)(=O)N1CCCC1` [Example 47, 5-Bromo-3-(pyrrolidin-1-ylsulfonyl)-N-(1,3-thiazol-2-ylmethyl)-1H-indole-2-carboxamide], for which the half-maximal inhibitory concentration (IC50) in experiment [2] (setting [5]) and in experiment [3] (setting [6]) was less than 1000 nM each time.
Take `O=C(NCc1ccon1)c1[nH]c2ccc(Br)cc2c1S(=O)(=O)N1CCCC1` [Example 58, 5-bromo-N-(isoxazol-3-ylmethyl)-3-(pyrrolidin-1-ylsulfonyl)-1H-indole-2-carboxamide]: in experiment [1] (setting [4]), the IC95 was less than 1000 nM.
Still for that read-out and setting: in the case of `CN1CCC(CNC(=O)c2[nH]c3ccc(Br)cc3c2S(=O)(=O)N2CCCC2)C1` (stereo not shown) [Example 60, 5-bromo-N-[(1-methylpyrrolidin-3-yl)methyl]-3-(pyrrolidin-1-ylsulfonyl)-1H-indole-2-carboxamide] it was less than 1000 nM; in that of `O=C(NCc1ncc(-c2ccccc2)[nH]1)c1[nH]c2ccc(Br)cc2c1S(=O)(=O)N1CCCC1` [Example 62, 5-bromo-N-[(5-phenyl-1H-imidazol-2-yl)methyl]-3-(pyrrolidin-1-ylsulfonyl)-1H-indole-2-carboxamide], more than 10000 nM.
The same measure, in the same setting: next, `O=C(NCc1nc2cccnc2[nH]1)c1[nH]c2ccc(Br)cc2c1S(=O)(=O)N1CCCC1` [Example 63, 5-bromo-N-(3H-imidazo[4,5-b]pyridin-2-ylmethyl)-3-(pyrrolidin-1-ylsulfonyl)-1H-indole-2-carboxamide]: less than 1000 nM; `C=Cc1ccc2[nH]c(C(N)=O)c(S(=O)(=O)N3CCCC3)c2c1` [Example 66, 3-(pyrrolidin-1-ylsulfonyl)-5-vinyl-1H-indole-2-carboxamide]: less than 1000 nM; `NC(=O)c1[nH]c2ccc(-c3cccc4ncccc34)cc2c1S(=O)(=O)N1CCCC1` [Example 67, 3-(pyrrolidin-1-ylsulfonyl)-5-quinolin-5-yl-1H-indole-2-carboxamide]: less than 1000 nM.
